US9359308B2, “Pyrazine kinase inhibitors” (Portola Pharmaceuticals, Inc., priority 2011, dated 2016)

Molecular target: T1, full length active recombinant SYK enzyme (Homo sapiens, UniProt P43405)
T1 construct: full length active recombinant SYK enzyme (Millipore, Calif.); purchased Millipore
Assay: Inhibition of Syk tyrosine phosphorylation activity (LANCE TR-FRET kinase assay)
Type: biochemical
Conditions: activity in the Syk assays, class symbols
Outline: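 1 nM full-length active recombinant SYK phosphorylated 550 nM biotin-DEEDYESP-OH with 100 μM ATP in 50 mM Tris pH 7.5, 5 mM MgCl2, 1 mM DTT and 3% DMSO for 1 h at room temperature. After EDTA quench, Eu-anti-phosphotyrosine/SA-APC TR-FRET was read after 1 h. IC50s came from non-linear regression.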

| IC50 [nM] | SMILES |
| --- | --- |
| 10 to 100 | CC[C@@H](Nc1cnc(C(N)=O)c(Nc2cncc(F)c2)n1)C(N)=O [Example 182, (R)-5-(1-amino-1-oxobutan-2-ylamino)-3-(5-fluoropyridin-3-ylamino)pyrazine-2-carboxamide] |
| 1 to 10 | CC(C)(C)[C@@H](Nc1cnc(C(N)=O)c(Nc2ccc3ncccc3c2)n1)C(N)=O [Example 192, (R)-5-(1-amino-3,3-dimethyl-1-oxobutan-2-ylamino)-3-(quinolin-6-ylamino)pyrazine-2-carboxamide] |
| 1 to 10 | COc1ccc(Nc2nc(N[C@H](CC3CC3)C(N)=O)cnc2C(N)=O)cc1OC [Example 171, (R)-5-(1-amino-3-cyclopropyl-1-oxopropan-2-ylamino)-3-(3,4-dimethoxyphenylamino)pyrazine-2-carboxamide] |
| 1 to 10 | CC(C)C[C@@H](Nc1cnc(C(N)=O)c(Nc2ccc(-c3ccccn3)cc2)n1)C(N)=O [Example 88, (R)-5-(1-amino-4-methyl-1-oxopentan-2-ylamino)-3-(4-(pyridin-2-yl)phenylamino)pyrazine-2-carboxamide] |
| 1 to 10 | C[C@@H](Nc1cnc(C(N)=O)c(Nc2cnc3ccccc3c2)n1)C(N)=O [Example 5, (R)-5-(1-amino-1-oxopropan-2-ylamino)-3-(quinolin-3-ylamino)pyrazine-2-carboxamide] |
| 10 to 100 | CC[C@@H](Nc1cnc(C(N)=O)c(Nc2ccc(OC)c(OC)c2)n1)C(N)=O [Example 151, (R)-5-(1-amino-1-oxobutan-2-ylamino)-3-(3,4-dimethoxyphenylamino)pyrazine-2-carboxamide] |
| 100 to 1000 | CC(C)[C@@H](Nc1cnc(C(N)=O)c(Nc2cccc(CN3CCOCC3)c2)n1)C(N)=O [Example 144, (R)-5-(1-amino-3-methyl-1-oxobutan-2-ylamino)-3-(3-(morpholinomethyl)phenylamino)pyrazine-2-carboxamide] |
| 1 to 10 | CC(C)[C@@H](Nc1cnc(C(N)=O)c(Nc2cc(F)c3ncccc3c2)n1)C(N)=O [Example 206, (R)-5-(1-amino-3-methyl-1-oxobutan-2-ylamino)-3-(8-fluoroquinolin-6-ylamino)pyrazine-2-carboxamide] |
| 1 to 10 | CC[C@@H](Nc1cnc(C(N)=O)c(Nc2ccc3c(c2)CCC(=O)N3)n1)C(N)=O [Example 30, (R)-5-(1-amino-1-oxobutan-2-ylamino)-3-(2-oxo-1,2,3,4-tetrahydroquinolin-6-ylamino)pyrazine-2-carboxamide] |
| 10 to 100 | CC(C)C[C@@H](Nc1cnc(C(N)=O)c(Nc2cncc(C(F)(F)F)c2)n1)C(N)=O [Example 196, (R)-5-(1-amino-4-methyl-1-oxopentan-2-ylamino)-3-(5-(trifluoromethyl)pyridin-3-ylamino)pyrazine-2-carboxamide] |
| 1 to 10 | Cc1cc(Nc2nc(N[C@H](CC(C)C)C(N)=O)cnc2C(N)=O)ccn1 [Example 84, (R)-5-(1-amino-4-methyl-1-oxopentan-2-ylamino)-3-(2-methylpyridin-4-ylamino)pyrazine-2-carboxamide] |
| 1 to 10 | CC[C@@H](Nc1cnc(C(N)=O)c(Nc2ccc(-c3cccnc3)cc2)n1)C(N)=O [Example 29, (R)-5-(1-amino-1-oxobutan-2-ylamino)-3-(4-(pyridin-3-yl)phenylamino)pyrazine-2-carboxamide] |
| 10 to 100 | CC[C@@H](Nc1cnc(C(N)=O)c(Nc2ccc3nc(N(C)C)oc3c2)n1)C(N)=O [Example 318, (R)-5-(1-amino-1-oxobutan-2-ylamino)-3-(2-(dimethylamino)benzo[d]oxazol-6-ylamino)pyrazine-2-carboxamide] |
| 10 to 100 | Cc1ccc(Nc2nc(N[C@@H](C(N)=O)C(C)C)cnc2C(N)=O)cc1 [Example 155, (R)-5-(1-amino-3-methyl-1-oxobutan-2-ylamino)-3-(p-tolylamino)pyrazine-2-carboxamide] |
| 10 to 100 | CC[C@@H](Nc1cnc(C(N)=O)c(Nc2ccc(C(=O)N3CC(F)(F)C3)nc2)n1)C(N)=O [Example 301, (R)-5-(1-amino-1-oxobutan-2-ylamino)-3-(6-(3,3-difluoroazetidine-1-carbonyl)pyridin-3-ylamino)pyrazine-2-carboxamide] |

Second part, the compound before the results:

| SMILES | IC50 [nM] |
| --- | --- |
| CC[C@@H](Nc1cnc(C(N)=O)c(Nc2ccnc(OC3CCC3)c2)n1)C(N)=O [Example 354, (R)-5-(1-amino-1-oxobutan-2-ylamino)-3-(2-cyclobutoxypyridin-4-ylamino)pyrazine-2-carboxamide] | 1 to 10 |
| CC(C)(C)C[C@@H](Nc1cnc(C(N)=O)c(Nc2cnc3cccnc3c2)n1)C(N)=O [Example 246, (R)-3-(1,5-naphthyridin-3-ylamino)-5-(1-amino-4,4-dimethyl-1-oxopentan-2-ylamino)pyrazine-2-carboxamide] | 1 to 10 |
| NC(=O)c1ncc(N[C@@H]2CCNC2)nc1Nc1cccnc1 [Example 113, (R)-3-(pyridin-3-ylamino)-5-(pyrrolidin-3-ylamino)pyrazine-2-carboxamide] | 10 to 100 |
| NC(=O)c1ncc(N[C@@H]2CCCC[C@@H]2N)nc1Nc1ccc(-c2ncco2)cc1 [Example 445, 5-(((1R,2S)-2-aminocyclohexyl)amino)-3-((4-(oxazol-2-yl)phenyl)amino)pyrazine-2-carboxamide] | 1 to 10 |
| CS(=O)(=O)c1cccc(Nc2nc(N[C@@H]3CCCC[C@@H]3N)cnc2C(N)=O)c1 [Example 154, 5-((1R,2S)-2-aminocyclohexylamino)-3-(3-(methylsulfonyl)phenylamino)pyrazine-2-carboxamide] | 10 to 100 |
| NC(=O)c1ncc(N[C@H]2CN[C@@H](CO)C2)nc1Nc1cnc2ccc(F)cc2c1 [Example 140, 3-((6-fluoroquinolin-3-yl)amino)-5-(((3R,5R)-5-(hydroxymethyl)pyrrolidin-3-yl)amino)pyrazine-2-carboxamide] | 1 to 10 |
| COc1ccc(Nc2nc(N[C@@H]3CCCC(F)(F)[C@@H]3N)cnc2C(N)=O)cc1 [Example 24, 5-((1R,2R)-2-amino-3,3-difluorocyclohexylamino)-3-(4-methoxyphenylamino)pyrazine-2-carboxamide] | 10 to 100 |
| NC(=O)c1ncc(N[C@@H]2CCCC[C@@H]2N)nc1Nc1cccc(C(F)(F)F)c1 [Example 199, 5-((1R,2S)-2-aminocyclohexylamino)-3-(3-(trifluoromethyl)phenylamino)pyrazine-2-carboxamide] | 1 to 10 |
| CS(=O)(=O)Cc1ccc(Nc2nc(N[C@@H]3CCCC[C@@H]3N)cnc2C(N)=O)cc1 [Example 145, 5-((1R,2S)-2-aminocyclohexylamino)-3-(4-(methylsulfonylmethyl)phenylamino)pyrazine-2-carboxamide] | 10 to 100 |
| NC(=O)c1ncc(N[C@@H]2CCNC2)nc1Nc1cccc(-c2ncccn2)c1 [Example 114, (R)-3-((3-(pyrimidin-2-yl)phenyl)amino)-5-(pyrrolidin-3-ylamino)pyrazine-2-carboxamide] | 1 to 10 |
| NC(=O)c1ncc(N[C@H](CC2CC2)C(N)=O)nc1Nc1cnc2cccnc2c1 [Example 406, (R)-3-(1,5-naphthyridin-3-ylamino)-5-(1-amino-3-cyclopropyl-1-oxopropan-2-ylamino)pyrazine-2-carboxamide] | 1 to 10 |
| NC(=O)c1ncc(NC2(C(N)=O)CC2)nc1Nc1cnc2ccc(F)cc2c1 [Example 175, 5-(1-carbamoylcyclopropylamino)-3-(6-fluoroquinolin-3-ylamino)pyrazine-2-carboxamide] | 1 to 10 |
| NC(=O)c1ncc(N[C@@H]2CCCC[C@@H]2N)nc1Nc1cncc(F)c1 [Example 418, 5-(((1R,2S)-2-aminocyclohexyl)amino)-3-((5-fluoropyridin-3-yl)amino)pyrazine-2-carboxamide] | 1 to 10 |
| NC(=O)c1ncc(N[C@@H]2CCCC[C@@H]2N)nc1Nc1cnn(C2CC2)c1 [Example 258, 5-((1R,2S)-2-aminocyclohexylamino)-3-(1-cyclopropyl-1H-pyrazol-4-ylamino)pyrazine-2-carboxamide] | 10 to 100 |
| NC(=O)c1ncc(N[C@H](Cc2c[nH]c3ccccc23)C(N)=O)nc1Nc1ccc2ncccc2c1 [Example 388, (R)-5-(1-amino-3-(1H-indol-3-yl)-1-oxopropan-2-ylamino)-3-(quinolin-6-ylamino)pyrazine-2-carboxamide] | 1 to 10 |
| NC(=O)c1ncc(N[C@@H]2CCCC[C@@H]2N)nc1Nc1cccc2ncccc12 [Example 436, 5-(((1R,2S)-2-aminocyclohexyl)amino)-3-(quinolin-5-ylamino)pyrazine-2-carboxamide] | < 1 |
| Cc1nsc(Nc2nc(N[C@@H]3CCCC[C@@H]3N)cnc2C(N)=O)c1F [Example 138] | 1 to 10 |
| CN(C)C(=O)c1ccc(Nc2nc(N[C@@H]3CCCC[C@@H]3N)cnc2C(N)=O)cc1 [Example 277, 5-((1R,2S)-2-aminocyclohexylamino)-3-(4-(dimethylcarbamoyl)phenylamino)pyrazine-2-carboxamide] | 10 to 100 |
| NC(=O)c1ncc(N[C@@H]2CCCC[C@@H]2N)nc1Nc1snc2ncccc12 [Example 412, 5-((1R,2S)-2-aminocyclohexylamino)-3-(isothiazolo[3,4-b]pyridin-3-ylamino)pyrazine-2-carboxamide] | < 1 |
| COC[C@@H](Nc1cnc(C(N)=O)c(Nc2cc(C)ns2)n1)C(N)=O [Example 402, (R)-5-(1-amino-3-methoxy-1-oxopropan-2-ylamino)-3-(3-methylisothiazol-5-ylamino)pyrazine-2-carboxamide] | 10 to 100 |
| Cc1cccc(Nc2nc(N[C@@H]3CCNC3)cnc2C(N)=O)c1 [Example 116, (R)-5-(pyrrolidin-3-ylamino)-3-(m-tolylamino)pyrazine-2-carboxamide] | 1 to 10 |
| NC(=O)c1ncc(N[C@H]2CC[C@@H](N)CC2)nc1Nc1ccc2ncccc2c1 [Example 187, 5-((1s,4s)-4-aminocyclohexylamino)-3-(quinolin-6-ylamino)pyrazine-2-carboxamide] | 1 to 10 |
